What is called mass density is the mass of a sample divided by its volume. In general, refractive index refers to a measure of how strongly the sample bends light.

This is an account of results in the NIST ThermoML archive (doi:10.1016/j.fluid.2015.07.023).

Molecules are shown by their SMILES. Numbers after ± are expanded uncertainties.

For data set [1] the following is noted: 298.15 K; 101.33 kPa; Liquid; mechanical oscillator.
Data set [2] in a line: refractive index (Na D-line) (dimensionless). Particulars: 298.15 K; 101.33 kPa; Liquid; Standard Abbe refractometry.

With `CC(C)OC(C)C` [diisopropyl ether], the mass density in data set [1] is 718.3 ± 0.3 kg/m3. For the same molecule, in data set [2], the refractive index is recorded as 1.3653 ± 0.0007.

`CO` [methanol]: in data set [1], the mass density is reported as 786.62 ± 0.21 kg/m3. The refractive index in data set [2] is listed as 1.32666 ± 0.00068.

As to `CC(C)O` [propan-2-ol], the mass density in data set [1] is 782.45 ± 0.21 kg/m3. In addition, the refractive index in data set [2] was found to be 1.37522 ± 0.00068.
